Measured values published in patent US12479834B2, “Phenol compound or salt thereof” (TAIHO PHARMACEUTICAL CO., LTD., priority 2019, dated 2025).

How the values were obtained:
G12C K-Ras4B (1-169) = biological target: T1, G12C K-Ras4B (1-169) (Homo sapiens, UniProt P01116, G12C); experiment: Binding to KRAS G12C mutant, compound binding rate by LC-MS; details: final compound concentration 2 μM, 1 μM protein, 2 hours at 25° C.
T1 construct: G12C K-Ras4B (1-169) protein, which was a KRAS G12C mutant; His tag (N, cleaved yes); made in house; host or cells: E. coli BL21 (DE3)
Text: K-Ras4B (1-169) protein was expressed in E. coli strain BL21 (DE3) by synthesizing a nucleotide sequence encoding the amino acid sequence represented by GenPept ID NP_004976 as a sequence optimized for E. coli by use of GeneArt Technology (Life Technologies Corp.) such that the protein was N-terminally His-tagged and fused with a TEV protease recognition sequence (ENLYFQG). The expressed His-tagged K-Ras4B (1-169) was purified through a Ni column, then cleaved at its tag with N-terminally His-tagged TEV protease, and passed through a Ni column again to recover a flow-through fraction, which was further purified by anion-exchange chromatography to obtain the protein. G12C K-Ras4B (1-169) protein, which was a KRAS G12C mutant, was obtained in the same way as in the K-Ras4B(1-169) protein except that glycine at position 12 of the amino acid sequence represented by GenPept ID NP_004976 was mutated to cysteine.
The K-Ras4B (1-169) protein and the G12C K-Ras4B (1-169) protein were mixed and diluted with a buffer solution (1×TBS and 0.1 mM TCEP) to prepare a protein solution containing 1 μM each of the proteins. Each test compound was dissolved at 10 mM in DMSO and further diluted 10-fold with DMSO to make a 1 mM solution. Then, the solution was diluted 5-fold with DMSO to make a 200 μM solution. The 200 μM solution was further diluted 5-fold to make a […] solution. 1 μL of the 40 μM test compound was added to 19 μL of the 1 μM protein solution such that the final compound concentration was 2 μM. The mixture was stored for 2 hours in an incubator of 25° C., and the reaction was terminated by the addition of 80 μL of a 1×TBS solution containing 0.2% formic acid, followed by LC-MS measurement.
The LC-MS measurement was performed by using Xevo G2-S Q-Tof manufactured by Waters Corp., performing reverse-phase chromatography with a desalting column, and obtaining mass spectra of positive ions by electrospray. For the mass spectra, spectra of polyvalent ions were collectively converted to molecular weights by the MaxEnt technique using OpenLynx software, and then, a compound binding rate was obtained from the ratio of […].
The binding rates of test compounds having a final compound concentration of 2 μM for G12C K-Ras4B (1-169) are shown in the table below. The binding rate for G12C K-Ras4B (1-169) is rated “A” for 80% or more, “B” for 60% or more and less than 80%, “C” for 40% or more and less than 60%, “D” for 20% or more and less than 40%, and “E” for less than 20%.

KRAS G12C mutant = biological target: T2, KRAS G12C mutant (Homo sapiens, UniProt P01116, G12C); experiment: Inhibition of SOS1-mediated nucleotide (GDP-GTP) exchange reaction of KRAS G12C mutant, BODIPY FL GDP fluorescence; format: biochemical; details: preincubated 25° C. 4 hours with 25 nM KRAS G12C bound with BODIPY FL GDP; SOS1 100 nM, GppNHp 1 μM, 30 minutes
T2 construct: 50 μM G12C K-Ras4B (1-169) protein and 1 mM BODIPY® FL GDP; His tag (N, cleaved yes); made in house; host or cells: E. coli BL21 (DE3)
Text: SOS1 protein was expressed in E. coli strain BL21 (DE3) by synthesizing a nucleotide sequence encoding the amino acid sequence represented by GenPept ID NP_005624 as a sequence optimized for E. coli by use of GeneArt Technology (Life Technologies Corp.) such that the protein was N-terminally His-tagged and fused with a TEV protease recognition sequence (ENLYFQG). The expressed His-tagged SOS1 (564-1049) was purified through a Ni column, then cleaved at its tag with N-terminally His-tagged TEV protease, and passed through a Ni column again to recover a flow-through fraction to obtain the protein.
Each compound was studied for its inhibitory effect on the exchange reaction of GDP into GppNHp in BODIPY® FL bound with the KRAS G12C mutant by fluorescence measurement using the G12C K-Ras4B (1-169) protein and the SOS1 protein.
For the preparation of the KRAS G12C mutant bound with BODIPY® FL GDP, first, 50 μM G12C K-Ras4B (1-169) protein and 1 mM BODIPY® FL GDP (Invitrogen Corp., G22360) were incubated for 1 hour in a buffer solution (20 mM Tris-HCl (pH 7.5), 50 mM NaCl, and 1 mM DTT) in ice in the presence of 2.5 mM EDTA. Then, MgCl2 was added thereto at a final concentration of 10 mM, then the mixture was incubated at room temperature for 30 minutes, and then, the protein was passed through a NAP-5 column for removal of free nucleotides and used for compound evaluation.
For the measurement of the inhibitory activity of compounds against nucleotide exchange reaction, first, the compound of the present invention was serially diluted with DMSO. Subsequently, the serially diluted solution of the compound of the present invention in DMSO (final concentration of DMSO: 5%) and the KRAS G12C mutant (25 nM) bound with BODIPY® FL GDP were added into a reaction buffer solution (20 mM Tris-HCl (pH 7.5), 100 mM NaCl, 1 mM MgCl2, 2 mM DTT, and 0.1% Tween 20), and the mixture was preincubated at 25° C. for 4 hours. Then, Son of Sevenless Homolog 1 (SOS1, amino acid region: 564-1049) and GppNHp (GMPPNP, Jena Bioscience GmbH, NU-401-50) were added thereto at final concentrations of 100 nM and 1 μM, respectively, and the mixture was reacted for 30 minutes. The change in fluorescence intensity of BODIPY® FL (excitation wavelength: 485 nm, fluorescence wavelength: 520 nm) between immediately after the start of reaction and after 30 minutes from the start of reaction was standardized, and then, the compound concentration at which 50% inhibition was achieved was calculated as IC50 (nM) when the signal value for only DMSO was defined as 0% inhibition and the signal value for no addition of GppNHp was defined as 100% inhibition.

SMILES | binding rate for G12C K-Ras4B (1-169) (G12C K-Ras4B (1-169)) | IC50 (KRAS G12C mutant) [nM]
C=CC(=O)N1CC(NC(=O)c2ccc(CNc3cc(C4CCC4)c(Cl)cc3O)o2)C1 [Example 53, N-(1-Acryloylazetidin-3-yl)-5-(((4-chloro-5-cyclobutyl-2-hydroxyphenyl)amino)methyl)furan-2-carboxamide] | E (less than 20%) | 5970
C=CC(=O)N1CC(N(C)C(=O)c2csc(CNc3cc(C(C)(C)C)c(Cl)cc3O)n2)C1 [Example 32, N-(1-Acryloylazetidin-3-yl)-2-(((5-(tert-butyl)-4-chloro-2-hydroxyphenyl)amino)methyl)-N-methylthiazole-4-carboxamide] | B (60% or more and less than 80%) | 64
C=CC(=O)N1CC(NC(=O)c2oc(CNc3cc(C(C)(C)C)c(Cl)cc3O)cc2C)C1 [Example 21, N-(1-Acryloylazetidin-3-yl)-5-(((5-(tert-butyl)-4-chloro-2-hydroxyphenyl)amino)methyl)-3-methylfuran-2-carboxamide] | B (60% or more and less than 80%) | 808
C=CC(=O)N1CC(NC(=O)c2csc(CNc3cc(C(C)(C)C)c(Cl)cc3O)n2)C1 [Example 8, N-(1-Acryloylazetidin-3-yl)-2-(((5-(tert-butyl)-4-chloro-2-hydroxyphenyl)amino)methyl)thiazole-4-carboxamide] | A (80% or more) | 58
C=CC(=O)N1CC(NC(=O)c2cnc(C(C)Nc3cc(C(C)(C)C)c(Cl)cc3O)n2C)C1 (centres unmarked) [Example 80, N-(1-Acryloylazetidin-3-yl)-2-(1-((5-(tert-butyl)-4-chloro-2-hydroxyphenyl)amino)ethyl)-1-methyl-1H-imidazole-5-carboxamide] | B (60% or more and less than 80%) | 104
C=CC(=O)N1CC(NC(=O)c2cnc(CNc3cc4c(cc3O)CCC4(C)C)n2C)C1 [Example 71, N-(1-Acryloylazetidin-3-yl)-2-(((6-hydroxy-3,3-dimethyl-2,3-dihydro-1H-inden-5-yl)amino)methyl)-1-methyl-1H-imidazole-5-carboxamide] | C (40% or more and less than 60%) | 221
C=CC(=O)N1CC(NC(=O)c2cnc(CNc3cc(S(F)(F)(F)(F)F)ccc3O)n2C)C1 [Example 75, N-(1-Acryloylazetidin-3-yl)-2-(((2-hydroxy-5-(pentafluoro-λ6-sulfaneyl)phenyl)amino)methyl)-1-methyl-1H-imidazole-5-carboxamide] | E (less than 20%) | 661
C=CC(=O)N1CC(NC(=O)c2c(C)nc(C(C)Nc3cc(C(C)(C)C)c(Cl)cc3O)n2C)C1 (centres unmarked) [Example 81, N-(1-Acryloylazetidin-3-yl)-2-(1-((5-(tert-butyl)-4-chloro-2-hydroxyphenyl)amino)ethyl)-1,4-dimethyl-1H-imidazole-5-carboxamide] | B (60% or more and less than 80%) | 225
C=CC(=O)N1CC(NC(=O)c2ccc(CNc3cc(C4CC4(F)F)c(Cl)cc3O)o2)C1 (centres unmarked) [Example 51, N-(1-Acryloylazetidin-3-yl)-5-(((4-chloro-5-(2,2-difluorocyclopropyl)-2-hydroxyphenyl)amino)methyl)furan-2-carboxamide] | C (40% or more and less than 60%) | 763
C=CC(=O)N1CC(NC(=O)c2cnc(CNc3cc(CC(F)(F)F)c(Cl)cc3O)n2C)C1 [Example 56, N-(1-Acryloylazetidin-3-yl)-2-(((4-chloro-2-hydroxy-5-(2,2,2-trifluoroethyl)phenyl)amino)methyl)-1-methyl-1H-imidazole-5-carboxamide] | E (less than 20%) | 599
C=CC(=O)N1CC(NC(=O)c2ccc(CNc3cc(C4CC4)c(Cl)cc3O)o2)C1 [Example 52, N-(1-Acryloylazetidin-3-yl)-5-(((4-chloro-5-cyclopropyl-2-hydroxyphenyl)amino)methyl)furan-2-carboxamide] | D (20% or more and less than 40%) | 2090
C=CC(=O)N1CC(NC(=O)c2cnc(C(C)Nc3cc(C(C)(C)C)c(Cl)c(F)c3O)n2C)C1 (centres unmarked) [Example 82, N-(1-Acryloylazetidin-3-yl)-2-(1-((5-(tert-butyl)-4-chloro-3-fluoro-2-hydroxyphenyl)amino)ethyl)-1-methyl-1H-imidazole-5-carboxamide] | B (60% or more and less than 80%) | 1040
C=CC(=O)N1CC(NC(=O)c2sc(Cc3cc(C(C)(C)C)c(Cl)cc3O)nc2C)C1 [Example 95, N-(1-Acryloylazetidin-3-yl)-2-(5-(tert-butyl)-4-chloro-2-hydroxybenzyl)-4-methylthiazole-5-carboxamide] | C (40% or more and less than 60%) | 467
C=CC(=O)N1CC(N(C)C(=O)c2cc(CNc3cc(C(C)(C)C)c(Cl)cc3O)co2)C1 [Example 34, N-(1-Acryloylazetidin-3-yl)-4-(((5-(tert-butyl)-4-chloro-2-hydroxyphenyl)amino)methyl)-N-methylfuran-2-carboxamide] | A (80% or more) | 80
C=CC(=O)N1CC(NC(=O)c2ccnc(CNc3cc(C(C)(C)C)c(Cl)cc3O)c2)C1 [Example 15, N-(1-Acryloylazetidin-3-yl)-2-(((5-(tert-butyl)-4-chloro-2-hydroxyphenyl)amino)methyl)isonicotinamide] | D (20% or more and less than 40%) | 825
C=CC(=O)N1CC(NC(=O)c2ccc(CNc3cc(C(C)(C)C)c(Cl)cc3O)cc2Cl)C1 [Example 22, N-(1-Acryloylazetidin-3-yl)-4-(((5-(tert-butyl)-4-chloro-2-hydroxyphenyl)amino)methyl)-2-chlorobenzamide] | D (20% or more and less than 40%) | 2380
